Source: patent US12325726B2, “Organic compounds” (priority 2018, dated 2025)
Read-outs that look alike come from different tables or passages of the source.

Assays:
[1] = cited from earlier work
GABAA receptor = test: [35S]-TBPS binding inhibition (in vitro potency); conditions: inhibition of specific binding of [35S]-TBPS
Protocol: (§1) In vitro potency [ability to inhibit the binding of [^35S]-tert-butylbicyclophosphorothionate (TBPS)], rotorod TD50's (dose at which half of animals tested fail to stay on a rotating rod for 1 minute) and the length of time before animals tested are able to pass rotorod test (duration of action) of 3α-Hydroxy-21-(1′-imidazolyl)-3β-methoxymethyl-5α-pregnan-20-one is determined. These methods for measuring in vitro and in vivo activity of compounds of the invention are fully described in U.S. Pat. No. 5,232,917, incorporated herein by reference in its entirety. The TBPS assay gives the in vitro potency of compounds whereas the rotorod assay estimates the sedative/hypnotic activity of compounds. Since the duration of action of a compound is dependent on the dose and will be prolonged at higher doses, the duration of action is measured at the lowest dose at which all of the animals failed the rotorod test. IC50 is the dose of steroid inhibiting 50% of specific binding of [^35S]-tert-butylbicyclophorothionate (TBPS). Rotorod TD50 is the does at which half of animals fail the rotorod test in rat. Duration of action, measured at the lowest dose where all animals failed the rotorod test, is the time required for all animals tested to once again pass the rotorod test.

rat = test: Rotorod test (sedative/hypnotic activity, duration of action); format: in vivo
Protocol: as §1

human hepatocyte = test: In vitro human hepatocyte stability assay; format: in vitro ADME; conditions: human hepatocytes
Protocol: The compounds of Examples 1, 2, 5 and 6 are compared in a standard in vitro human hepatocyte stability assay run in duplicate. Compounds are provided as 1 M solutions in DMSO, and concentration of test compound is determined at 0.5, 1.0 and 4.0 hours after addition of the test compound. Results are shown below as a percentage of initial concentration.

[2] = In vivo mouse pharmacokinetics, paired oral co-dosing, plasma and brain; set-up: species or system mice; conditions: 10 mg/kg po co-dosed; for AUC: 0.25-6 hr sampling
Protocol: In a first study, the compounds of Examples 2 to 6 are compared to the Compound of Formula A (Example 1) using standard procedures in mice. In each test, two compounds are co-dosed in a single animal and the relative pharmacokinetics in plasma and brain is determined. Each test compound is dissolved in polyethylene glycol 400 vehicle, and administered orally at a dose of 10 mg/kg. After single dose oral administration of the test compounds together, plasma and brain levels are measured at 0.25, 0.5, 1, 2, 4, and 6 hours post-dosing. The mean values for maximum concentration, time to maximum concentration, and Area Under the Curve (AUC) for both compounds are determined. The results are summarized in the tables below for various paired co-dosing experiments: […]

[3] = brain, read-out: Brain concentration
[4] = plasma, read-out: Plasma concentration

## COC[C@@]1(O)CC[C@@]2(C)[C@@H](CC[C@@H]3[C@@H]2CC[C@]2(C)[C@@H](C(=O)Cn4ccnc4)CC[C@@H]32)C1 [Example 1, 3α-Hydroxy-21-(1′-imidazolyl)-3β-methoxymethyl-5α-pregnan-20-one]
[1]; human, oral 1 mg fasted, mean
  AUC (0-24): 16.9 ng·h/mL
  AUC (0-last): 22.4 ng·h/mL
  Cmax: 1.3 ng/mL
  T1/2: 13.8 h
  Tmax: 3.1 h
[1]; human, oral 3 mg fasted, mean
  AUC (0-24): 54.6 ng·h/mL
  AUC (0-last): 65.6 ng·h/mL
  Cmax: 5.7 ng/mL
  T1/2: 8.8 h
  Tmax: 2.8 h
[1]; human, oral 10 mg fasted, mean
  AUC (0-24): 213 ng·h/mL
  AUC (0-last): 254 ng·h/mL
  Cmax: 26.5 ng/mL
  T1/2: 13.1 h
  Tmax: 1.7 h
[1]; human, oral 30 mg fasted, mean
  AUC (0-24): 952 ng·h/mL
  AUC (0-last): 1117 ng·h/mL
  Cmax: 120 ng/mL
  T1/2: 13.1 h
  Tmax: 2.1 h
[1]; human, oral 60 mg fasted, mean
  AUC (0-24): 2330 ng·h/mL
  AUC (0-last): 2608 ng·h/mL
  Cmax: 330 ng/mL
  T1/2: 12.5 h
  Tmax: 1.8 h
[1]; humans, oral dosing, average across five dosing groups
  T1/2: approximately 12 hours
GABAA receptor
  IC50: 138 nM
rat; Rattus norvegicus, po, read-out: rotorod TD50 (po)
  TD50: 28 mg/kg
rat; at lowest dose where all animals failed the rotorod test, time until all pass again
  duration of action: 140 min
Human hepatocyte; 0 hr
  percentage of initial concentration: 100%
Human hepatocyte; 0.5 hr
  percentage of initial concentration: 94%
Human hepatocyte; 1.0 hr
  percentage of initial concentration: 90%
Human hepatocyte; 4.0 hr
  percentage of initial concentration: 78%
[2]; brain
  Cmax: 2880 ng/g
  Tmax: 1 h
  AUC: 14200 ng·h/mL
[2]; [3]
  concentration at 0.25 hr: 2280 ng/g
  concentration at 0.5 hr: 2230 ng/g
  concentration at 1 hr: 2880 ng/g
  concentration at 2 hr: 2520 ng/g
  concentration at 4 hr: 2360 ng/g
  concentration at 6 hr: 2090 ng/g
[2]; brain/plasma, read-out: B/P AUC Ratio
  Kp: 1.2
[2]; plasma
  Cmax: 2580 ng/mL
  Tmax: 1 h
  AUC: 11700 ng·h/mL
[2]; [4]
  concentration at 0.25 hr: 2270 ng/mL
  concentration at 0.5 hr: 1820 ng/mL
  concentration at 1 hr: 2580 ng/mL
  concentration at 2 hr: 2100 ng/mL
  concentration at 4 hr: 1840 ng/mL
  concentration at 6 hr: 1750 ng/mL
